According to publication PMC5944259 (Evidence-based Complementary and Alternative Medicine : eCAM, 2018):
Read-outs that look alike come from different tables or passages of the source.

Experiments:
[1] = target: T1, Acetyl-CoA carboxylase 1 (Homo sapiens, UniProt Q13085); assay: SPR assay ACC1; assay type: binding; settings: for Offset / Rmax / χ^2: ACC1
T1 construct: purchased Proteintech (Shanghai)
Description: In the SPR test, the target proteins were first combined with the CM5 chip. After correction through standard solutions, a series of different concentrations of molecules (0, 2, 4, 8, 16, 32, 64, and 128 μmol/l) were tested for their binding to the protein. Finally, the affinity between the protein and molecule was determined by an array of parameters, such as the Kd values, Rmax, offset, and χ^2.

[2] = target: T2, Mammalian target of rapamycin (Homo sapiens, UniProt P42345); assay: Enzyme activity test mTOR (Lance ultra); assay type: biochemical
T2 construct: purchased Proteintech (Shanghai)
Description: (§1) As there were some kinase proteins in our protein database with different characteristics to other proteins, we used an enzyme activity test to validate the real interactions between the protein and molecule.
(§2) Selected pairs of protein and molecule participated in enzyme activity test, while electrophoretic mobility shirt assay (EMSA) and Lance ultra were conducted in an experiment with […] (100, 50, 25, 12.5, 6.25, 3.12, 1.56, 0.78, and 0.39 μmol/l). Finally, the IC50 (nM) value was used to assess the ability of a molecule to act or inhibit the protein.

[3] = database annotation in words, no reference given; cited from earlier work
[4] = cited from earlier work
[5] = target: T3, Protein kinase C, beta type (Homo sapiens, UniProt P05771); assay: Enzyme activity test PKC-B (EMSA); assay type: biochemical
T3 construct: purchased Proteintech (Shanghai)
Description: as §1, §2

[6] = target: T4, Rho-associated protein kinase 1 (Homo sapiens, UniProt Q13464); assay: Enzyme activity test ROCK1 (EMSA); assay type: biochemical
T4 construct: purchased Proteintech (Shanghai)
Description: as §1, §2

[7] = target: T5, Superoxide dismutase [Mn] (Homo sapiens, UniProt P04179); assay: SPR assay SOD2; assay type: binding
T5 construct: purchased Sino Biological (Shanghai)
T5 sequence (P04179 25-222): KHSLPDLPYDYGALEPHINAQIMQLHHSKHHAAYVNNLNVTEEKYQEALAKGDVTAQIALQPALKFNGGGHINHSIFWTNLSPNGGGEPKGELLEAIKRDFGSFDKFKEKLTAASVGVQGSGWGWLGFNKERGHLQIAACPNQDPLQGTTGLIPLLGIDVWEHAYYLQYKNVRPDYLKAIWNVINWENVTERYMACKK

[8] = database annotation in words, no reference given; cited from earlier work; remark: listed apart in the source

T4 sequence (Q13464 whole entry): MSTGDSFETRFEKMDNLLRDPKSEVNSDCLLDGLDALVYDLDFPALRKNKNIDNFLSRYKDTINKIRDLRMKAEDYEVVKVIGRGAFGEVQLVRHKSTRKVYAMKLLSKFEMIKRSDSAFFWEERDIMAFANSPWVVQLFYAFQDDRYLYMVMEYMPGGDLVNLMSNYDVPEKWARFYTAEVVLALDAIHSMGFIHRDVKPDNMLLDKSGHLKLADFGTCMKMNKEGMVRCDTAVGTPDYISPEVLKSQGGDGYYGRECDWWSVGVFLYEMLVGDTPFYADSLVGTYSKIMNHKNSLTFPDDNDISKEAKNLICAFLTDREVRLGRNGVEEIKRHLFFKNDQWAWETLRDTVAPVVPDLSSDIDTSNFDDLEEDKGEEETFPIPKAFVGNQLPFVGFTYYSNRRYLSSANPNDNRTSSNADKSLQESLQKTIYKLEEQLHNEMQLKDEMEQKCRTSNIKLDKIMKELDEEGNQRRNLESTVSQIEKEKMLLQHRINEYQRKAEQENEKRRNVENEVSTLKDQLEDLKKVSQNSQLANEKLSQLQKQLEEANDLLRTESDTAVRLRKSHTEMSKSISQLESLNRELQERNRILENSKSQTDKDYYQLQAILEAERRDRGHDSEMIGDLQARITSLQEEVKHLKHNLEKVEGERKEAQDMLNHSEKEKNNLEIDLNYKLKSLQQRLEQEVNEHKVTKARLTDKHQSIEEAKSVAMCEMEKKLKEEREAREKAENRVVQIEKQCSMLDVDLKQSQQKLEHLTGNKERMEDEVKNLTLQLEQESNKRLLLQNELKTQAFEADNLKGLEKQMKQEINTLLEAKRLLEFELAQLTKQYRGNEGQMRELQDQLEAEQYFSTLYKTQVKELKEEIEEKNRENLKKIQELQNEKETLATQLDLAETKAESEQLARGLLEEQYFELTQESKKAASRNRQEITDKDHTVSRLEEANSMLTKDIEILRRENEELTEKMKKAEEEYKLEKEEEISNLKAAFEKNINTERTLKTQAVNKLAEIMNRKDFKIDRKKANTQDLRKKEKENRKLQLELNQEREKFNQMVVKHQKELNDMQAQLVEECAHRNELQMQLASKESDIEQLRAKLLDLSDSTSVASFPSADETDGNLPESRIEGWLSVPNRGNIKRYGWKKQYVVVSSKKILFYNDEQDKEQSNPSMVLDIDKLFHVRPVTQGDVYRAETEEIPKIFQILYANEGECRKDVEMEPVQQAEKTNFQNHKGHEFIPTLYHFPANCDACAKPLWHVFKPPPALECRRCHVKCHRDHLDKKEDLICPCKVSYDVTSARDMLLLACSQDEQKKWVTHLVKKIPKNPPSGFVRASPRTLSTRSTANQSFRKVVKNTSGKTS
T3 sequence (P05771 whole entry): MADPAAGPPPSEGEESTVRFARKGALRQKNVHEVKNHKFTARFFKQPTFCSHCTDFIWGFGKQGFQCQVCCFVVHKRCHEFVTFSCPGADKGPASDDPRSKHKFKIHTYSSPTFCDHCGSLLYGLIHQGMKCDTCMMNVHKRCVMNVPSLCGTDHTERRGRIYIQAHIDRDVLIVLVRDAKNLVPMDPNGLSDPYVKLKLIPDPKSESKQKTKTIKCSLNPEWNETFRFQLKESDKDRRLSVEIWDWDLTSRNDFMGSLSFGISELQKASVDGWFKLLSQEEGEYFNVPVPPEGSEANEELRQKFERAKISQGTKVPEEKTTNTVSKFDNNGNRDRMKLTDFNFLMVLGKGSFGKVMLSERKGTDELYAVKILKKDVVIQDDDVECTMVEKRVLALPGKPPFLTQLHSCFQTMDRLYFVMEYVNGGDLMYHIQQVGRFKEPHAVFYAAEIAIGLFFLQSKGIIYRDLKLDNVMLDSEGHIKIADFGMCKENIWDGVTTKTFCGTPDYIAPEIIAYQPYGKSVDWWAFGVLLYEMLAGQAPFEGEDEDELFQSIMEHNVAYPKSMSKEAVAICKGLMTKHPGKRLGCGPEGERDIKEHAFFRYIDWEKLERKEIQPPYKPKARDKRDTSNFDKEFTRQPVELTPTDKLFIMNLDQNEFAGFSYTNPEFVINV

## CC(C)(O)[C@@H]1CC[C@](C)([C@H]2[C@@H](O)C[C@@]3(C)[C@@H]4C[C@H](O[C@@H]5O[C@H](CO)[C@@H](O)[C@H](O)[C@H]5O)[C@H]5C(C)(C)[C@@H](O[C@@H]6OC[C@@H](O)[C@H](O)[C@H]6O)CC[C@@]56C[C@@]46CC[C@]23C)O1 [Astragaloside IV]
[1]
  Kd: 92.5 µM
[1]; SPR
  Offset: 0.2424 RU
  Rmax: 7.856 RU
  χ^2: 0.0243 RU^2
[2]
  IC50: > 10 µM
[3]
  作用药理 (pharmacological action): 诱导TNF-α分泌，降低直接作用+作用于肝糖调节酶+通过上调Sarco/内质网Ca2 + -ATP酶2的表达。抑制足细胞介导的细胞凋亡的内质网应激
[4]
  absorbed in blood after the oral administration of GDC: could be absorbed in blood

## COC(=O)C1=CO[C@@H](O[C@@H]2O[C@H](CO)[C@@H](O)[C@H](O)[C@H]2O)[C@@H]2[C@H](C)O[C@@H](O)C[C@H]12 [Morroniside]
[1]; SPR
  Offset: −0.2651 RU
  Rmax: 2.204 RU
  χ^2: 0.0962 RU^2
[1]; SPR, ACC1 on CM5 chip, read-out: Kd
  Kd: 13.6 µM
[5]
  IC50: > 10 µM
[6]
  IC50: > 10 µM
[4]
  absorbed in blood after the oral administration of GDC: could be absorbed in blood

## C[C@@H]1O[C@@H](OC[C@H]2O[C@@H](Oc3c(-c4ccc(O)c(O)c4)oc4cc(O)cc(O)c4c3=O)[C@H](O)[C@@H](O)[C@@H]2O)[C@H](O)[C@H](O)[C@H]1O [Rutin]
[4]
  absorbed in blood after the oral administration of GDC: could be absorbed in blood

## COc1c(O)cc(O)c2c(=O)cc(-c3ccccc3)oc12 [Wogonin]
[7]; SOD2
  Offset: −3.611 RU
  Rmax: 14.3 RU
  χ^2: 2.11 RU^2
[7]; SOD2 on CM5 chip
  Kd: 5.08 µM

## OC[C@H]1O[C@@H](O[C@@H]2OC=C[C@H]3[C@H](O)[C@@H]4O[C@]4(CO)[C@@H]23)[C@H](O)[C@@H](O)[C@@H]1O [catalpol / catalpinoside]
[3]
  作用药理 (pharmacological action): 有降糖作用
[8]
  stability remark (acid, base, high temperature): 酸碱高温下可分解，分解后变黑

## COc1cc(C(=O)OCCCCNC(=N)N)cc(OC)c1O [leonurine]
[3]
  作用药理 (pharmacological action): 抗血小板作用

## astragalosideⅤ
[3]
  作用药理 (pharmacological action): 阻碍羧甲基赖氨酸、戊糖苷形成，抑制糖尿病视网膜病变、神经病变进程

## stachyose
[3]
  作用药理: side effect: 胀气副作用，炮制可减少水苏糖的量
